Results as given in paper PMC10746543, “Design principles for cyclin K molecular glue degraders” (Nature Chemical Biology, 2023).
Values joined by “and” are separate entries in the source; they are usually repeats but may differ in a detail not shown here. Identical values can stand only once. Like-named read-outs stand apart in the source and are kept apart here.

Key:
[1] = biological target: T1, CDK12–cyclin K and DDB1 (Homo sapiens, UniProt Q16531+Q9NYV4, K965R); assay: TR-FRET ternary complex formation assay (compound titration); format: binding
T1 construct: His6–CDK12 (a.a. 713–1,052); full-length or beta-propeller B domain deletion (ΔBPB: a.a. 396–705 deleted) constructs of His6–DDB1ΔBPB, StrepII–Avi–DDB1, or His6–Spy–DDB1; made in house; host or cells: Trichoplusia ni High Five insect cells (baculovirus)
Summary of the method: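 Signal was the ratio of 520 nm to 490 nm fluorescence, measured after a 70 μs delay that reduced background.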

[2] = test system: HEK293T cells; assay: Drug sensitivity assay (CellTiter-Glo viability) with or without MLN4924 pretreatment; format: cell-based, human; details: Supplementary Table 2
Summary of the method: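 HEK293T–Cas9, 0.15 × 10^6 ml^−1; pretreat DMSO vs 100 nM MLN4924; drugs dispensed after 2 h; 3 d exposure; CellTiter-Glo; viability vs DMSO control.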

[3] = biological target: T2, CDK2–cyclin A (Homo sapiens, UniProt P24941); assay: Lanthascreen kinase binding assay, CDK2; details: for Lanthascreen signal, sheet CDK2: raw replicates, experiment r36-r46
T2 construct: purchased Thermo Fisher
Description: (§1) Lanthascreen experiments were performed using commercially available reagents (Thermo Fisher) and according to the manufacturer’s instructions.

[4] = test system: cyclin K–eGFP degradation reporter; assay: Cyclin K reporter stability analysis (dual-color cyclin K–eGFP reporter); format: cell-based, human; details: source data sheet correlations; read-out: DC50
Summary of the method: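 Cells (HEK293T–Cas9, reporter-expressing) at 1 × 10^6 ml^−1; 5 h compound or DMSO; flow cytometry; gMFI eGFP ÷ mCherry on round mCherry-positive events; normalized to 3 DMSO controls.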

[5] = biological target: T3, CDK9–cyclin T (Homo sapiens, UniProt P50750); assay: Lanthascreen kinase binding assay, CDK9; details: for Lanthascreen TR-FRET signal (raw ratio), sheet CDK9: third titration set (r25), duplicates
T3 construct: purchased Thermo Fisher
Description: as §1

[6] = biological target: CDK12–cyclin K (Homo sapiens, UniProt Q9NYV4); assay: Lanthascreen kinase binding assay, CDK12; details: for Lanthascreen raw signal, sheet CDK12: series r37, duplicates
Description: as §1

T3 sequence (P50750 whole entry): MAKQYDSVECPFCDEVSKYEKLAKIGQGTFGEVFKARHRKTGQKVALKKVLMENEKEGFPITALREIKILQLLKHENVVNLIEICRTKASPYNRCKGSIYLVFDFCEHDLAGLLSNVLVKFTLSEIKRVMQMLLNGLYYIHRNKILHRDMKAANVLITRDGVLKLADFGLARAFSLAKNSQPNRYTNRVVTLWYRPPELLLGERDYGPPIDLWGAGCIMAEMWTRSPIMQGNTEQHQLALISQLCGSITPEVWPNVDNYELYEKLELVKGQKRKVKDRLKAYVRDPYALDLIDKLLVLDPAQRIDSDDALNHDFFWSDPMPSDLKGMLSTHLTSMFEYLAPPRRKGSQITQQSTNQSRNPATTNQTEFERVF
T3 sequence (O60563 whole entry partner): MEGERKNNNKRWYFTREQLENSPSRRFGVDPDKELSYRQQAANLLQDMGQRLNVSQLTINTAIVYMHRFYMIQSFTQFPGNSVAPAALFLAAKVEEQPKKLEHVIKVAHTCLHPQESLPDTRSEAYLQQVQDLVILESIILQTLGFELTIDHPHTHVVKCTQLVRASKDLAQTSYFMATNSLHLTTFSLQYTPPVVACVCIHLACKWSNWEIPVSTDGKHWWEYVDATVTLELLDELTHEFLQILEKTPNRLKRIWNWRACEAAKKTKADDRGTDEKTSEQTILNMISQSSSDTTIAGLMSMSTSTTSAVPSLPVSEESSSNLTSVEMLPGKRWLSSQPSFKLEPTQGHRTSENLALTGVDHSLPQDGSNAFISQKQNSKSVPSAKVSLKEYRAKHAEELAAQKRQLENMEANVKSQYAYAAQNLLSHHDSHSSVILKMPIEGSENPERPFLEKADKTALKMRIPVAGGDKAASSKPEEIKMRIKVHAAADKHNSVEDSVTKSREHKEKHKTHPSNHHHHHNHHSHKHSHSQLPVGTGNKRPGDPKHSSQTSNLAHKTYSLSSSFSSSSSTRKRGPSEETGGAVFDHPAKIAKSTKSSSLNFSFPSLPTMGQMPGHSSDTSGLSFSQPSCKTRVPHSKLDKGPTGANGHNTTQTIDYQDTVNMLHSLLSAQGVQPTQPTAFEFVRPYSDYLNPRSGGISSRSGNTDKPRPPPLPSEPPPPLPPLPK
T1 sequence (Q9NYV4 713-1052 K965R): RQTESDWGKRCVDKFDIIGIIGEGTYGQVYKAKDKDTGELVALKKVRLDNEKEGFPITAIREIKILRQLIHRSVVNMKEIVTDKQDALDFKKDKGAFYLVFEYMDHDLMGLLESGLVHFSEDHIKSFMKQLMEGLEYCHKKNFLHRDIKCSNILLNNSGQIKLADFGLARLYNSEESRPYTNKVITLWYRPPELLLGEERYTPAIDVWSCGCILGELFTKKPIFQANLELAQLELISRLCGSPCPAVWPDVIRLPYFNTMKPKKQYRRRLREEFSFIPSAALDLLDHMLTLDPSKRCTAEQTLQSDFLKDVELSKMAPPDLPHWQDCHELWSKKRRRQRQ
T1 sequence (O75909 1-267 partner): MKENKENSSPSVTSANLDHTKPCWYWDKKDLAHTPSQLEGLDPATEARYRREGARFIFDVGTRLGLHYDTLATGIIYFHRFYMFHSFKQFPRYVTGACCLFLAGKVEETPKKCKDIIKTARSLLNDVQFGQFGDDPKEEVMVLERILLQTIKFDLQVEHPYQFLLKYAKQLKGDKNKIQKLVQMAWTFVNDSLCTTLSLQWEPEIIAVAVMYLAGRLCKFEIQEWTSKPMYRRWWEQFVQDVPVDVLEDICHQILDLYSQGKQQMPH
T1 sequence (Q16531 whole entry): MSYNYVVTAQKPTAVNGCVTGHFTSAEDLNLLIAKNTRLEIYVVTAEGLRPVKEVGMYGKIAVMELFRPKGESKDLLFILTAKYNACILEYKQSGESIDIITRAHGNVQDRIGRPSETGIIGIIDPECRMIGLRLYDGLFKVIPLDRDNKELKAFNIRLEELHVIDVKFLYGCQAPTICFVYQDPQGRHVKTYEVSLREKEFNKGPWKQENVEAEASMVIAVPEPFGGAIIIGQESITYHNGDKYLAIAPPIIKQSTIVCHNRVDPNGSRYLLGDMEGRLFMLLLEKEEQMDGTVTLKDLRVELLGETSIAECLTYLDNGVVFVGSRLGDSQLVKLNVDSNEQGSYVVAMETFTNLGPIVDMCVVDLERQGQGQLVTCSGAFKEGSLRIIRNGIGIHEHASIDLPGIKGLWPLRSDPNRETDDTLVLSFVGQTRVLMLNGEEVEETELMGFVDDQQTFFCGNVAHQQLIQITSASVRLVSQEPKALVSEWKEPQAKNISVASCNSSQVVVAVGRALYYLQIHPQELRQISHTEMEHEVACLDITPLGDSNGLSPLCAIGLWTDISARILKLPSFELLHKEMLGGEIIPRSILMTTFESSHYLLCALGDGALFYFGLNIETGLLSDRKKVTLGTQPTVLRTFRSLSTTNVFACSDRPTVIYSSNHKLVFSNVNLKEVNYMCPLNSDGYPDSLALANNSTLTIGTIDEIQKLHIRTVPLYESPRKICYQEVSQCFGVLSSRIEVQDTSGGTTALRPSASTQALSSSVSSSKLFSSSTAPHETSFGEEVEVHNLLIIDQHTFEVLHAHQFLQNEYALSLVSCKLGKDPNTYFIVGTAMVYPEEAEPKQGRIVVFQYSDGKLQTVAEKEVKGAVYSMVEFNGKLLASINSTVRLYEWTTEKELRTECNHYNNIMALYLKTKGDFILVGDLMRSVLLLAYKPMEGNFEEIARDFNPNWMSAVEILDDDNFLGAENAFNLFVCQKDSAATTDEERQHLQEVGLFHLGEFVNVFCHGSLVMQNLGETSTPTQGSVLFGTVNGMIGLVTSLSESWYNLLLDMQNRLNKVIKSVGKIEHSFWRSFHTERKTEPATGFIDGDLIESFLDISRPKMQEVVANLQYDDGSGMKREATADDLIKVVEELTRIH
Sequence of CDK12–cyclin K (Q9NYV4 713-1052): as the sequence (Q9NYV4 713-1052 K965R) above, with R253K counted along it
Sequence of CDK12–cyclin K (O75909 1-267 partner limits assumed): as the sequence (O75909 1-267 partner) above

TR-FRET signal at compound concentration 0.468 nM ([1]; compound concentration 0.468 nM, raw replicate titration data): 0.2612 and 0.2579 and 0.218 and 0.2096
TR-FRET signal at compound concentration 2.16 nM ([1]; compound concentration 2.16 nM, raw replicate titration data): 0.3357 and 0.3419 and 0.2765 and 0.3174
TR-FRET signal at compound concentration 3.6 nM ([1]; compound concentration 3.6 nM, raw replicate titration data): 0.4892 and 0.5148 and 0.5183 and 0.5347
TR-FRET signal at compound concentration 7.92001 nM ([1]; compound concentration 7.92001 nM, raw replicate titration data): 0.8316 and 0.8843 and 0.9885 and 1.068
TR-FRET signal at compound concentration 15.84 nM ([1]; compound concentration 15.84 nM, raw replicate titration data): 1.474 and 1.574 and 1.714 and 1.959
TR-FRET signal at compound concentration 30.96 nM ([1]; compound concentration 30.96 nM, raw replicate titration data): 2.47 and 2.714 and 3.094 and 3.238
TR-FRET signal at compound concentration 62.6401 nM ([1]; compound concentration 62.6401 nM, raw replicate titration data): 3.3967 and 3.4513 and 3.77 and 3.733
TR-FRET signal at compound concentration 125.28 nM ([1]; compound concentration 125.28 nM, raw replicate titration data): 3.673 and 3.6963 and 3.89 and 3.859
TR-FRET signal at compound concentration 244.8 nM ([1]; compound concentration 244.8 nM, raw replicate titration data): 3.796 and 3.869 and 3.911 and 3.923
TR-FRET signal at compound concentration 993.601 nM ([1]; compound concentration 993.601 nM, raw replicate titration data): 3.806 and 3.925 and 3.935 and 3.945
TR-FRET signal at compound concentration 2001.6 nM ([1]; compound concentration 2001.6 nM, raw replicate titration data): 3.846 and 3.958 and 4 and 4.014
EC50 ([1]; in vitro complex formation, 50 nM CDK12–cyclin K, 100 nM DDB1, text and figures, read-out: TR-FRET EC50): 19 ± 1 nM
EC50 ([1]; sheet MOESM7, read-out: log TR-FRET EC50 (converted)): 19.3 nM
EC50 ([1]; source data sheet correlations, read-out: TR-FRET EC50): 19.3 nM
Lanthascreen signal, sheet CDK2 ([3]; Compound 0.038147 nM): 0.01361 and 0.01332
Lanthascreen signal, sheet CDK2 ([3]; Compound 0.152588 nM): 0.01367 and 0.01361
Lanthascreen signal, sheet CDK2 ([3]; Compound 0.610352 nM): 0.01456 and 0.01463
Lanthascreen signal, sheet CDK2 ([3]; Compound 9.76563 nM): 0.01461 and 0.01423
Lanthascreen signal, sheet CDK2 ([3]; Compound 39.0625 nM): 0.01375 and 0.01404
Lanthascreen signal, sheet CDK2 ([3]; Compound 156.25 nM): 0.01392 and 0.01367
Lanthascreen signal, sheet CDK2 ([3]; Compound 625 nM): 0.01433 and 0.01409
Lanthascreen signal, sheet CDK2 ([3]; Compound 2500 nM): 0.01378 and 0.01394
Lanthascreen signal, sheet CDK2 ([3]; Compound 10000 nM): 0.01296 and 0.01217
IC50 ([3]; Lanthascreen, average, Extended Data Fig. 8, read-out: CDK2 IC50): > 10000 nM
IC50 ([3]; Supplementary Table 2, read-out: Lanthascreen IC50 [nM] CDK2): > 10000 nM
DC50 [4]: 109 nM
IC50 ([5]; Lanthascreen, average, Extended Data Fig. 8, read-out: CDK9 IC50): > 10000 nM
IC50 ([5]; Supplementary Table 2, read-out: Lanthascreen IC50 [nM] CDK9): > 10000 nM
Lanthascreen TR-FRET signal (raw ratio), sheet CDK9 ([5]; compound 0.038147 nM): 0.01967 and 0.01921
Lanthascreen TR-FRET signal (raw ratio), sheet CDK9 ([5]; compound 0.152588 nM): 0.02095 and 0.01844
Lanthascreen TR-FRET signal (raw ratio), sheet CDK9 ([5]; compound 0.610352 nM): 0.02014 and 0.01923
Lanthascreen TR-FRET signal (raw ratio), sheet CDK9 ([5]; compound 9.76563 nM): 0.02017 and 0.01981
Lanthascreen TR-FRET signal (raw ratio), sheet CDK9 ([5]; compound 39.0625 nM): 0.02067 and 0.01823
Lanthascreen TR-FRET signal (raw ratio), sheet CDK9 ([5]; compound 156.25 nM): 0.02063 and 0.01896
Lanthascreen TR-FRET signal (raw ratio), sheet CDK9 ([5]; compound 625 nM): 0.01918 and 0.01876
Lanthascreen TR-FRET signal (raw ratio), sheet CDK9 ([5]; compound 2500 nM): 0.01797 and 0.01674
Lanthascreen TR-FRET signal (raw ratio), sheet CDK9 ([5]; compound 10000 nM): 0.01641 and 0.01561
IC50 ([6]; Supplementary Table 2, read-out: Lanthascreen IC50 [nM] CDK12): 1320 nM
Lanthascreen raw signal, sheet CDK12 ([6]; compound 0.038147 nM): 0.01422 and 0.01468
Lanthascreen raw signal, sheet CDK12 ([6]; compound 0.152588 nM): 0.01335 and 0.01357
Lanthascreen raw signal, sheet CDK12 ([6]; compound 0.610352 nM): 0.01416 and 0.01634
Lanthascreen raw signal, sheet CDK12 ([6]; compound 9.76563 nM): 0.01407 and 0.01436
Lanthascreen raw signal, sheet CDK12 ([6]; compound 39.0625 nM): 0.01347 and 0.01362
Lanthascreen raw signal, sheet CDK12 ([6]; compound 156.25 nM): 0.01258 and 0.01228
Lanthascreen raw signal, sheet CDK12 ([6]; compound 625 nM): 0.01036 and 0.01104
Lanthascreen raw signal, sheet CDK12 ([6]; compound 2500 nM): 0.007943 and 0.008192
Lanthascreen raw signal, sheet CDK12 ([6]; compound 10000 nM): 0.006259 and 0.005981
Compound: CC[C@H](CO)Nc1nc(NCc2nc3cc(Cl)c(Cl)cc3[nH]2)c2ncn(-c3cnn(C)c3)c2n1 [DS22]
EC50 ([2]; Homo sapiens, HEK-293T, HEK293T viability, 72 h, compound alone, read-out: Cellular assays EC50): 935 nM
Toxicity rescue ([2]; MLN4924-mediated cytotoxicity rescue, 10 µM used where n.d.): 66%
